Where a name gives a salt, the structure may show the parent alone.
How the values were obtained:
hmGluR5a receptor = hmGluR5a receptor (Homo sapiens (Human), UniProt P41594); test: Calcium Flux Assay; type: cell-based; details: hmGluR5a/L38-20 cells, glutamate-evoked [Ca2+]i
Procedure: The activity of compounds was examined against the hmGluR5a receptor stably expressed in mouse fibroblast Ltk− cells (the hmGluR5a/L38-20 cell line). See generally Daggett et al., Neuropharmacology 34:871-886 (1995). Receptor activity was detected by changes in intracellular calcium ([Ca^2+]i) measured using the fluorescent calcium-sensitive dye, fura-2. hmGluR5a/L38-20 cells were plated onto 96-well plates, and loaded with 3 µM fura-2 for 1 h. Unincorporated dye was washed from the cells, and the cell plate was transferred to a custom-built 96-channel fluorimeter (SIBIA-SAIC, La Jolla, Calif.) which is integrated into a fully automated plate handling and liquid delivery system. Cells were excited at 350 and 385 nm with a xenon source combined with optical filters. Emitted light was collected from the sample through a dichroic mirror and a 510 nm interference filter and directed into a cooled CCD camera (Princeton Instruments). Image pairs were captured approximately every 1 s, and ratio images were generated after background subtraction. After a basal reading of 20 s, an EC80 concentration of glutamate ([…]) was added to the well, and the response evaluated for another 60 s. The glutamate-evoked increase in [Ca^2+]i in the presence of the screening compound was compared to the response of glutamate alone (the positive control).

hmGluR5 = hmGluR5 (Homo sapiens (Human), UniProt P41594); test: Phosphatidylinositol Hydrolysis (IP) Assay; type: cell-based; details: hmGluR5/L38-20 cells
Procedure: Inositol phophate assays were performed as described by Berridge et al. (1982) (Berridge et al, (1982) Biochem. J. 206: 587-5950; and Nakajima et al., J. Biol. Chem. 267:2437-2442 (1992)) with slight modifications. Mouse fibroblast Ltk cells expressing hmGluR5 (hmGluR5/L38-20 cells) were seeded in 24-well plates at a density of 8×10^5 cells/well. […] of [^3H]-inositol (Amersham PT6-271; Arlington Heights, Ill.; specific activity=17.7 Ci/mmol) was added to each well and incubated for 16 h at 37° C. Cells were washed twice and incubated for 45 min in 0.5 ml of standard Hepes buffered saline buffer (HBS; 125 mM NaCl, 5 mM KCl, […] MgS04, 1.8 mM CaCl2, 20 mM HEPES, 6 mM glucose, pH to 7.4). The cells were washed with HBS containing 10 mM LiCl, and 400 ill buffer added to each well. Cells were incubated at 37° C. for 20 min. For testing, […], of 10× compounds used in the practice of the invention [made in HBS/LiCl (100 mM)] was added and incubated for 10 minutes. Cells were activated by the addition of […] glutamate, and the plates left for 1 hour at 37° C.
The incubations were terminated by the addition of 1 mL ice-cold methanol to each well. In order to isolate inositol phosphates (IPs), the cells were scraped from wells, and placed in numbered glass test tubes. […] Scintillant was added to each vial, and the vials shaken, and counted in a scintillation counter after 2 hours. […]

[1] = biological target: metabotropic glutamate receptor subtype 5 (Rattus norvegicus (Rat), UniProt P31424); test: [3H]-mGluR5 Antagonist Binding to Rodent Brain Membranes
Procedure: In accordance with Anderson J J, Rao S P, Rowe B, Giracello D R, Holtz G, Chapman D F, Tehrani L, Bradbury M J, Cosford N D, Varney M A, [^3H]Methoxymethyl-3-[(2-methyl-1,3-thiazol-4-yl)ethynyl]pyridine binding to metabotropic glutamate receptor subtype 5 in rodent brain: in vitro and in vivo characterization. J Pharmacol Exp Ther. 2002 December; 303 (3):1044-51, membranes were prepared (as described in Ransom R W and Stec N L (1988) Cooperative modulation of [^3H]MK-801 binding to the N-methyl-D-aspartate receptor-ion channel complex by L-glutamate, glycine, and polyamines. J Neurochem 51:830-836) using whole rat brain, or mGlu5^+/+ or mGlu5^−/− whole mouse brain.
Binding assays were performed as described in Schaffhauser H, Richards J G, Cartmell J, Chaboz S, Kemp J A, Klingelschmidt A, Messer J, Stadler H, Woltering T and Mutel V (1998) In vitro binding characteristics of a new selective group II metabotropic glutamate receptor radioligand, [^3H]LY354740, in rat brain. Mol Pharmacol 53:228-233) at room temperature with slight modifications. Briefly, membranes were thawed and washed once with assay buffer (50 mM HEPES, 2 mM MgCl2, pH 7.4), followed by centrifugation at 40,000×g for 20 min. The pellet was resuspended in assay buffer and briefly homogenized with a Polytron.
For protein linearity experiments, increasing concentrations of membrane protein were added to 96-well plates in triplicate and binding was initiated by addition of 20 nM [^3H]methoxymethyl-3-[(2-methyl-1,3-thiazol-4-yl)ethynyl]pyridine. The assay was incubated for 2 h and non-specific binding was determined using 10 μM MPEP. The binding was terminated by rapid filtration through glass-fiber filters (Unifilter-96 GF/B plate, Packard) using a 96-well plate Brandel cell harvester. Following addition of scintillant, the radioactivity was determined by liquid scintillation spectrometry. Protein measurements were performed by BioRad-DC Protein assay using bovine serum albumin as the standard.
Saturation binding experiments were performed in triplicate with increasing concentrations of [^3H]methoxymethyl-3-[(2-methyl-1,3-thiazol-4-yl)ethynyl]pyridine (1 pM to 100 nM). The time course of association was measured by the addition of 10 nM [^3H]methoxymethyl-3-[(2-methyl-1,3-thiazol-4-yl)ethynyl]pyridine to the membranes at different time points (0-240 min), followed by filtration. Dissociation was measured by the addition of 100 μM unlabeled methoxymethyl-3-[(2-methyl-1,3-thiazol-4-yl)ethynyl]pyridine at different time points to membranes previously incubated for 3 h with 10 nM [^3H]methoxymethyl-3-[(2-methyl-1,3-thiazol-4-yl)ethynyl]pyridine. For competition experiments, 100 μg membrane protein and 10 nM [^3H]methoxymethyl-3-[(2-methyl-1,3-thiazol-4-yl)ethynyl]pyridine was added to wells containing increasing concentration of the test compound in duplicate (methoxymethyl-3-[(2-methyl-1,3-thiazol-4-yl)ethynyl]pyridine or MPEP). [^3H]-3-Methoxy-5-(pyridin-2-ylethynyl)pyridine may also be used as the radioligand in the procedure described above. (See, Cosford, N. D. P.; Roppe, J.; Tehrani, L.; Seiders, T. J.; Schweiger, E. J. et al. [3H]-Methoxymethyl-MTEP and [3H]-methoxy-PEPy): Potent and selective radioligands for the Metabotropic Glutamate Subtype 5 (mGlu5) Receptor. Bioorg. Med. Chem. Lett. 2003, 13, 351-354.)

[2] = aqueous medium

Sequence of metabotropic glutamate receptor subtype 5 (P31424 21-1203): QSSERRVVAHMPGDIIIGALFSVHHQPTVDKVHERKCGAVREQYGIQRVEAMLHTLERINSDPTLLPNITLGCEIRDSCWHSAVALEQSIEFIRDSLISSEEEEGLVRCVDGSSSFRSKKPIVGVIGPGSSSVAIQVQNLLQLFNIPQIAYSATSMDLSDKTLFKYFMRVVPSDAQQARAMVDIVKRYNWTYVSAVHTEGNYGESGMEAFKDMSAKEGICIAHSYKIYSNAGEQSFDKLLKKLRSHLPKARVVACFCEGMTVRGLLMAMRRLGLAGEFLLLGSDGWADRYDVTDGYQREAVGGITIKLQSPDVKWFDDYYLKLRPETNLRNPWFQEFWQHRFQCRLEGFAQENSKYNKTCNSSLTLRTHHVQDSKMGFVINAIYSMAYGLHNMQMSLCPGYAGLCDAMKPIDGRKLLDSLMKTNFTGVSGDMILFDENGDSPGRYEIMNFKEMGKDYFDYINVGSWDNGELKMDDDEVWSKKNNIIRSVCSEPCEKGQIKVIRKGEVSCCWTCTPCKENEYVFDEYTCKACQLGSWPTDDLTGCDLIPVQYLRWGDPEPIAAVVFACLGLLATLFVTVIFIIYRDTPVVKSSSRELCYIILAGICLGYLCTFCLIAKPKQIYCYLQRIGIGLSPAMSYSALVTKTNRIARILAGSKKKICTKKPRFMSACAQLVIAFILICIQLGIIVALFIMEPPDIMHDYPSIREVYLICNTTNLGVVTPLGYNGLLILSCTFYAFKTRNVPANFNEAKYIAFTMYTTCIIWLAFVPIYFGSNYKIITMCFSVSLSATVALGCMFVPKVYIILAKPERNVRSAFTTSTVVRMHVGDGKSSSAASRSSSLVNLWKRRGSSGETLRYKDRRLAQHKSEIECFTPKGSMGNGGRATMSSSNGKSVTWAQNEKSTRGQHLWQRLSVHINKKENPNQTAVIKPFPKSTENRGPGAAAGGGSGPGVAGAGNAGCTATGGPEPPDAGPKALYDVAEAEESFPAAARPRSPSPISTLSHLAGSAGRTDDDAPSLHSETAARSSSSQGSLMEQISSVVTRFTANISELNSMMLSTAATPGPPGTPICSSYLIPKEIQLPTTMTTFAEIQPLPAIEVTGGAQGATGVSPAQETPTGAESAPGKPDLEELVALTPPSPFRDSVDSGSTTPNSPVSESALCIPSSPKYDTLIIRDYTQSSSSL
Sequence of hmGluR5a receptor (P41594 other isoform, or with tags, fused parts or gaps): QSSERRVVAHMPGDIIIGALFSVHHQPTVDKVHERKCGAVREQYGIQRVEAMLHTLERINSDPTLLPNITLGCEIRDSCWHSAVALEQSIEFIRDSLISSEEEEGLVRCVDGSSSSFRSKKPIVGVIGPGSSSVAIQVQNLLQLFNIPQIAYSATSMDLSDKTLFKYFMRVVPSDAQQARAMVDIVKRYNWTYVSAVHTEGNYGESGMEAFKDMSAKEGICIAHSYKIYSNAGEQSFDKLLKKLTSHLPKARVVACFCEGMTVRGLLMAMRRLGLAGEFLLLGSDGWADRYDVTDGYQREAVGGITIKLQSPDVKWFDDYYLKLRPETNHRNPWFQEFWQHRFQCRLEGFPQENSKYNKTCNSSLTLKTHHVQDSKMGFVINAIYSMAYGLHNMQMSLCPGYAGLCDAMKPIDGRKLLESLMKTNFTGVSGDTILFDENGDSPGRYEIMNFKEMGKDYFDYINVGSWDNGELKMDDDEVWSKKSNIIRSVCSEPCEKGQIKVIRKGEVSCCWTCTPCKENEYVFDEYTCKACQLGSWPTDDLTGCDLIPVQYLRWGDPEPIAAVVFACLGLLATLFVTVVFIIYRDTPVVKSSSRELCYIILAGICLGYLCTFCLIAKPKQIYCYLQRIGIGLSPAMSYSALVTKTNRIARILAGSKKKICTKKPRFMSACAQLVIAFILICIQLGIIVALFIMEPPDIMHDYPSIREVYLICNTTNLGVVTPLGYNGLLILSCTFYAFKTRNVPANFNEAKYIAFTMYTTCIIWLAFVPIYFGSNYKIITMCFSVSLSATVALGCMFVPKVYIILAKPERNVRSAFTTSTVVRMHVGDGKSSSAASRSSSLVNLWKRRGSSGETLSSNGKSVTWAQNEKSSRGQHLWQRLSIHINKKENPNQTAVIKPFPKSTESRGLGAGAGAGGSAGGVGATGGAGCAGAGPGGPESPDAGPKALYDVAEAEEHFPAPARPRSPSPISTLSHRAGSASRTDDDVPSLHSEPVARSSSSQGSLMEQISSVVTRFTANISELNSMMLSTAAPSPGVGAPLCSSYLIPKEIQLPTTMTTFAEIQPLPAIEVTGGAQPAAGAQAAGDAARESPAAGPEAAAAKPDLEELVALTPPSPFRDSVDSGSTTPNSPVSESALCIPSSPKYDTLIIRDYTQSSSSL
Sequence of hmGluR5 (P41594 other isoform, or with tags, fused parts or gaps): as above

| SMILES | IC50 (hmGluR5a receptor) [nM] | Ki [1] [nM] | IC50 (hmGluR5) [nM] | solubility [2] |
| --- | --- | --- | --- | --- |
| Cc1nc(C#Cc2ccc(-c3cc(F)cc(C#N)c3)nc2)cs1 [Example 1, 3-fluoro-5-{5-[(2-methyl-1,3-thiazol-4-yl)ethynyl]pyridin-2-yl}benzonitrile] | 3 | 20 | 33 | – |
| C(#Cc1nccs1)c1ccccc1.Cc1ccc(S(=O)(=O)O)cc1 [2-(phenylethynl)-1,3-thiazole] | – | – | – | soluble in aqueous medium |
| Cc1nc(C#Cc2ccc(-c3cc(C#N)ccc3F)nc2)cs1 [Example 48] | 9 | 12.5 | – | – |
| Cc1nc(C#Cc2ccc(-c3ccc(F)cc3F)nc2)cs1 [Example 33] | 19 | 7 | – | – |
| Cc1nc(C#Cc2ccc(N(C)c3ccccn3)nc2)cs1 [Example 50] | 9 | 12 | – | – |

Second part, led by results:

| IC50 (hmGluR5a receptor) [nM] | Ki [1] [nM] | SMILES | IC50 (hmGluR5) [nM] | solubility [2] |
| --- | --- | --- | --- | --- |
| 4.9 | 19.3 | Cc1nc(C#Cc2ccc(-n3ccc4ccncc43)nc2)cs1 [Example 18, 1-{5-[(2-methyl-1,3-thiazol-4-yl)ethynyl]pyridin-2-yl}-1H-pyrrolo[2,3-c]pyridine] | 2 | – |
| 0.6 | 1.1 | Cc1nc(C#Cc2ccc(-c3cc(F)ccc3C)nc2)cs1 [Example 12, 2-(5-fluoro-2-methylphenyl)-5-[(2-methyl-1,3-thiazol-4-yl)ethynyl]pyridinium trifluoroacetate] | – | – |
| 3 | 16 | Cc1nc(C#Cc2ccc(Oc3ccccc3)nc2)cs1 [Example 79] | – | – |
| 5 | 7 | Cc1nc(C#Cc2ccc(NC(C)(C)C)nc2)cs1 [Example 72] | – | – |
| 0.6 | 0.6 | Cc1nc(C#Cc2cnc(-c3ccccc3C)nc2)cs1 [Example 13, 2-(2-methylphenyl)-5-[(2-methyl-1,3-thiazol-4-yl)ethynyl]pyrimidine] | – | – |
| 1 | 2 | Cc1nc(C#Cc2ccc(-c3ccccc3F)nc2)cs1 [Example 2, 2-(2-fluorophenyl)-5-[(2-methyl-1,3-thiazol-4-yl)ethynyl]pyridine] | – | – |
| 6 | 4 | CCC(C)(C)Nc1ccc(C#Cc2csc(C)n2)cn1 [Example 59] | – | – |
| 7 | 13 | Cc1nc(C#Cc2ccc(-c3cccc(CO)c3)nc2)cs1 [Example 56] | – | – |

From patent US8609852B2, “Thiazolyl mGluR5 antagonists and methods for their use” (Merck Sharp & Dohme Corp., priority 2004, dated 2013)
